Assays:
Type in all cases: functional
Vero [1] = experiment: Percentage inhibition against Vero cells at a concentration of 200 uM; conditions: Chlorocebus sabaeus
Vero [2] = experiment: Percentage inhibition against Vero cells at a concentration of 600 uM; conditions: Chlorocebus sabaeus
Vero [3] = experiment: Dose of compound required to reduced HSV-1 induced cytopathogenicity in vero cells; conditions: Chlorocebus sabaeus, read-out: ED50 (the source's name)

Cc1cn(C2O[C@H](CO)[C@@H](O)[C@@H]2O)c(=O)n(C)c1=O (stereo partly drawn)
inhibition at 200 µM (Vero [1]): 40% | inhibition at 600 µM (Vero [2]): 59% | EC50 (Vero [3]): 140 nM
